# According to ChEMBL document CHEMBL1125989, “Preparation and evaluation of optically active 4,4-difluorothreonine as a potent novel antitumor material” (Bioorg Med Chem Lett, 1991):
# Assays:
# Mus musculus [1] = test: Tested for body weight of CDF1 mice bearing P388 leukemia at dose of 20 mg/kg/day on day 1; format: functional
# Mus musculus [2] = test: Tested for mean survival time of tested group to that of mean survival time of control group of mice bearing P388 leukemia at dose of 250 mg/kg/day; format: functional
# Mus musculus [3] = test: Tested for mean survival time of tested group to that of mean survival time of control group of mice bearing P388 leukemia at dose of 20 mg/kg/day; format: functional
# Mus musculus [4] = test: Tested for mean survival time of tested group to that of mean survival time of control group of mice bearing P388 leukemia at dose of 100 mg/kg/day; format: functional
# Mus musculus [5] = test: Tested for body weight of CDF1 mice bearing P388 leukemia at dose of 250 mg/kg/day on day 1; format: functional
# Mus musculus [6] = test: Tested for body weight of CDF1 mice bearing P388 leukemia at dose of 100 mg/kg/day on day 1; format: functional
# L1210 [7] = test: Tested for the effect of stereochemistry on the growth of L1210 mouse leukemia cell line in vitro; format: functional, cell-based
# Mus musculus [8] = test: Tested for body weight of CDF1 mice bearing P388 leukemia at dose of 100 mg/kg/day on day 5; format: functional
# Mus musculus [9] = test: Tested for body weight of CDF1 mice bearing P388 leukemia at dose of 250 mg/kg/day on day 5; format: functional
# Mus musculus [10] = test: Tested for body weight of CDF1 mice bearing P388 leukemia at dose of 20 mg/kg/day on day 5; format: functional
# PC10 [11] = test: Concentration at 50 percent inhibition of cell growth against human […] cell line in vitro; format: functional, cell-based
# KB = test: Concentration at 50 percent inhibition of cell growth against human cancer KB cell line in vitro; format: functional, cell-based
# CCRF-CEM = test: Concentration at 50 percent inhibition of cell growth against human leukemia CCRF CEM cell line in vitro; format: functional, cell-based
# L1210 [12] = test: Concentration at 50 percent inhibition of cell growth against mouse leukemia 1210 cell line in vitro; format: functional, cell-based
# PC10 [13] = test: Concentration at 50 percent inhibition of cell growth against human cancer PC10 cell line in vitro; format: functional, cell-based
structure (smiles),measurement,setting,value
C[C@H](O)[C@H](N)C(=O)O,Body weight,Mus musculus [1],22 g
same,T/C,Mus musculus [2],170%
same,T/C,Mus musculus [3],114%
same,T/C,Mus musculus [4],122%
same,Body weight,Mus musculus [5],22.7 g
same,Body weight,Mus musculus [6],21.3 g
same,IC50,L1210 [7],2.8 µg/mL
same,Body weight,Mus musculus [8],21.7 g
same,Body weight,Mus musculus [9],22 g
same,Body weight,Mus musculus [10],22 g
NC(C(=O)O)C(O)C(F)F (racemic),IC50,PC10 [11],5.1 µg/mL
same,IC50,KB,2.7 µg/mL
same,IC50,CCRF-CEM,1.7 µg/mL
same,IC50,L1210 [12],1.1 µg/mL
same,IC50,L1210 [7],3.3 µg/mL
C[C@@H](O)[C@@H](N)C(=O)O [D-allothreonine],IC50,L1210 [7],> 100 µg/mL
O=c1[nH]cc(F)c(=O)[nH]1 [FLUOROURACIL],IC50,KB,12.1 µg/mL
same,IC50,PC10 [13],42 µg/mL
same,IC50,CCRF-CEM,0.95 µg/mL
same,IC50,L1210 [12],0.36 µg/mL
